Test [1] addresses T1, Muscarinic acetylcholine receptor M1 (Homo sapiens, UniProt P11229).
T1 sequence (P11229 whole entry): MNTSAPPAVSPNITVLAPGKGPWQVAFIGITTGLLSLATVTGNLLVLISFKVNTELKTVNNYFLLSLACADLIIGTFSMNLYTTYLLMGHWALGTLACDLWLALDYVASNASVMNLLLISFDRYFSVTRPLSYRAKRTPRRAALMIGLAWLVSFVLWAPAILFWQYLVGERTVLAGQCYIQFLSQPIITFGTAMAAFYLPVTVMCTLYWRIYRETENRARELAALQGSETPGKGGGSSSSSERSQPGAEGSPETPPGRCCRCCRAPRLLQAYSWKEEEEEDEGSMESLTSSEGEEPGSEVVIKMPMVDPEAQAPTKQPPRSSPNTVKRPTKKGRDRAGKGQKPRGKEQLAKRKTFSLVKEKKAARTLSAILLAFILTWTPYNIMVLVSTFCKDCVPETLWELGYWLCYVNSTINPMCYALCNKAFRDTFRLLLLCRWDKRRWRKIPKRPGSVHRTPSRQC
Format: functional, cell-based.

Test [2] addresses Delta-type opioid receptor (Homo sapiens, UniProt P41143).
For test [3], the target named is T2, Alpha-2C adrenergic receptor (Homo sapiens, UniProt P18825).
T2 sequence (P18825 whole entry): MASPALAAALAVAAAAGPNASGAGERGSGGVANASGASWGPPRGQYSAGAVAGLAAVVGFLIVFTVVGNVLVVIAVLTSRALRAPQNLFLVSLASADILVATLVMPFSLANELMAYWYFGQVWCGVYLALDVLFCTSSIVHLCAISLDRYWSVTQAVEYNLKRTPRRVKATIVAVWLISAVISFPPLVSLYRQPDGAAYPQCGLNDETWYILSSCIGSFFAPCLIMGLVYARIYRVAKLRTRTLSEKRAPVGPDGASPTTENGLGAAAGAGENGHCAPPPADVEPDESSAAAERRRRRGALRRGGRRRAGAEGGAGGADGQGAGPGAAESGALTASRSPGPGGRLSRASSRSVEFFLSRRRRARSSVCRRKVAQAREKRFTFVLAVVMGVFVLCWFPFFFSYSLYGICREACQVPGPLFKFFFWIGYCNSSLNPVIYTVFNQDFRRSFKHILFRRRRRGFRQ
Format: functional.

Another test concerns the target T3, Adenosine receptor A3 (Homo sapiens, UniProt P0DMS8).
T3 sequence (P0DMS8 whole entry): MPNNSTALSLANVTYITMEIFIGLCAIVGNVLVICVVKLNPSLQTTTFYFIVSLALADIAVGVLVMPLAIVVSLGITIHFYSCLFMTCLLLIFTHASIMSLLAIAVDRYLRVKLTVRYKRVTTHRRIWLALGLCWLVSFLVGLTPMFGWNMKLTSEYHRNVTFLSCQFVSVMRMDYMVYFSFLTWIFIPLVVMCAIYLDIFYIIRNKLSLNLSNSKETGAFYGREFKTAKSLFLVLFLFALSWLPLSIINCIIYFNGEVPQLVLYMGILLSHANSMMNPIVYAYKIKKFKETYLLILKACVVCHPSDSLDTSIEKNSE

Test [4] has as its target T4, Muscarinic acetylcholine receptor M2 (Homo sapiens, UniProt P08172).
T4 sequence (P08172 whole entry): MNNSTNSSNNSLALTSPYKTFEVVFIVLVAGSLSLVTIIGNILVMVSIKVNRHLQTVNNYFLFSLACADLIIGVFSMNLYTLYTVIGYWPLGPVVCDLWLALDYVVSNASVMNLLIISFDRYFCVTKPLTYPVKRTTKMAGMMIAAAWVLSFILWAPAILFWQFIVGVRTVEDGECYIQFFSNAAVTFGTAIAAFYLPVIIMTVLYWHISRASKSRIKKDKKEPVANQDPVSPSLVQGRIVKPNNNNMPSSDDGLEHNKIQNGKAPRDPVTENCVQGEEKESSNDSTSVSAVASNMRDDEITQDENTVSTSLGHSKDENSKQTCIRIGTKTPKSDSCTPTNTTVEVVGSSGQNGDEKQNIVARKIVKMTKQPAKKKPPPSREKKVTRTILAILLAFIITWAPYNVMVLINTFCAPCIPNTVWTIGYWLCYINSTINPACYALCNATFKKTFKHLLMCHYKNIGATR
The format is functional, cell-based.

The target in test [5] is T4, Muscarinic acetylcholine receptor M2. Format: functional, cell-based. This is another data set of the same source.
In test [6] the target is T5, Alpha-2B adrenergic receptor (Homo sapiens, UniProt P18089).
T5 sequence (P18089 whole entry): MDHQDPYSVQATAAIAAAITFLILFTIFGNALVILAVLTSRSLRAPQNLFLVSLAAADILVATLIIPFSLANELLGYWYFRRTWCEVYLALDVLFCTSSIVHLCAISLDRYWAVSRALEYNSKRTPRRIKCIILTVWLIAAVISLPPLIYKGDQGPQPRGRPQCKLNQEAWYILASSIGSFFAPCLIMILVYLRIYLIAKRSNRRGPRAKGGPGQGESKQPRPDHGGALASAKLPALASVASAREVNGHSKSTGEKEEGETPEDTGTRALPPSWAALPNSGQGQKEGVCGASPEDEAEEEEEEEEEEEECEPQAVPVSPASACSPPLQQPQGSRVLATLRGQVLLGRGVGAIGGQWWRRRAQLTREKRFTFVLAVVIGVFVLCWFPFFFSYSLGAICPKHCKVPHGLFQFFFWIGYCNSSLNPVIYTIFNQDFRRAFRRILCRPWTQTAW

Test [7] concerns the target Gamma-aminobutyric acid receptor subunit alpha-1 (Rattus norvegicus, UniProt P62813).

One may read the AC50 as the concentration giving half of the maximal activity seen.
Also: assay procedure not described here.

Chain of Delta-type opioid receptor (P41143 whole entry): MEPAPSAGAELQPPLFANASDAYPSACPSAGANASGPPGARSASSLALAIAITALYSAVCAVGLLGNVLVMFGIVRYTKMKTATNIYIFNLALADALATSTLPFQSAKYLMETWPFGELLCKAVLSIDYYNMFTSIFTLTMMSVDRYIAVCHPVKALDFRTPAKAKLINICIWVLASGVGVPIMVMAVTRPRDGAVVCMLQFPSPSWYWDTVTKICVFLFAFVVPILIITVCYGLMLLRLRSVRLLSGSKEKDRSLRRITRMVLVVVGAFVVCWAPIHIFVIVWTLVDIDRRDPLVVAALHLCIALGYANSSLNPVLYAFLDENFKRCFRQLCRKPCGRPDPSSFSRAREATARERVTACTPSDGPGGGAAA
Chain of Gamma-aminobutyric acid receptor subunit alpha-1 (P62813 whole entry): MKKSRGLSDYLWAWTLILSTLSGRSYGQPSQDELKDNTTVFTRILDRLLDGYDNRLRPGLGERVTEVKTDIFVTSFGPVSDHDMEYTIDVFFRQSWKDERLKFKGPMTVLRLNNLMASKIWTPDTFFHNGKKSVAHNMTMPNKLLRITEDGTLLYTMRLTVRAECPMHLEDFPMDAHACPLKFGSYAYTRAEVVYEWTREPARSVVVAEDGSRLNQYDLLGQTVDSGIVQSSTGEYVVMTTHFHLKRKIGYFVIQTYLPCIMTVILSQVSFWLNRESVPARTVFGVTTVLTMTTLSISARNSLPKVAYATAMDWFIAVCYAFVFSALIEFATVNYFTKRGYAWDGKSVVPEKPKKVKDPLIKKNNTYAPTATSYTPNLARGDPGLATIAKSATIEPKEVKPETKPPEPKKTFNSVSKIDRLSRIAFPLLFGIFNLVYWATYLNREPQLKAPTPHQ

Regarding `Cc1nc(-c2ccc(OCC(C)C)c(C#N)c2)sc1C(=O)O` [FEBUXOSTAT], the AC50 in test [1] is 16.1 µM. Same read-out and setting: next, `COc1ccc(-c2cc(=O)c3c(O)cc(O[C@@H]4O[C@H](CO[C@@H]5O[C@@H](C)[C@H](O)[C@@H](O)[C@H]5O)[C@@H](O)[C@H](O)[C@H]4O)cc3o2)cc1O` [DIOSMIN]: greater than 30 µM.

As to `CCOc1ccc(/C=C2\NCCc3cc(OCC)c(OCC)cc32)cc1OCC` [DROTAVERINE], in test [1], half-maximal activity (AC50) was put at 12.3 µM. For the compound `CS(=O)(=O)Nc1cc2occ(NC=O)c(=O)c2cc1Oc1ccccc1` [IGURATIMOD], the AC50 (in test [2]; in test [1]; in test [3]; on Adenosine receptor A3) was greater than 30 µM each time. Take `CCOC(=O)CC(SP(=S)(OC)OC)C(=O)OCC` (stereo unspecified) [MALATHION]: the activity in test [1] was half-maximal at 27.1 µM (AC50). As for `CCCCN(CCCC)CCCOC(=O)c1ccc(N)cc1` [BUTACAINE], the AC50 in test [1] is greater than 30 µM. On the same count and under the same terms, next, `Nc1nc(-n2cc(C(=O)O)c(=O)c3cc(F)c(N4CC(O)C4)c(Cl)c32)c(F)cc1F` [DELAFLOXACIN]: greater than 30 µM; `O=C1NCC2(CCN(CCc3ccccc3)CC2)O1` [FENSPIRIDE]: greater than 30 µM; `CCN(CC)CCNc1ccc(C)c2sc3ccccc3c(=O)c12` [LUCANTHONE]: 4.21 µM.

For the compound `CCOC(=O)C(c1c(O)c2ccccc2oc1=O)c1c(O)c2ccccc2oc1=O` [ETHYL BISCOUMACETATE], in test [1], the AC50 was greater than 30 µM.

For the compound `CCS(=O)(=O)N1CC(CC#N)(n2cc(-c3ncnc4[nH]ccc34)cn2)C1` [BARICITINIB], the AC50 in test [1] was greater than 10 µM. On the same count and under the same terms, next, `C1N2CN3CN1CN(C2)C3` [METHENAMINE]: greater than 30 µM.

Turning to `CN1CCC2=C(C1)c1ccccc1Cc1ccccc12` [SETIPTILINE], in test [1], the AC50 turned out to be 8.28 µM. On to `O=C(NC1CCN(CCCCC2(C(=O)NCC(F)(F)F)c3ccccc3-c3ccccc32)CC1)c1ccccc1-c1ccc(C(F)(F)F)cc1` [LOMITAPIDE], for which, in test [1], half-maximal activity (AC50) was put at 3.86 µM. Consider `CCC1C(C)=NN=C(c2ccc(OC)c(OC)c2)c2cc(OC)c(OC)cc21` (stereo unspecified) [TOFISOPAM], for which, in test [1], the activity was half-maximal at 25.3 µM (AC50).

`C[C@@H]1C[C@H]2[C@@H]3C[C@H](F)C4=CC(=O)C(Cl)=C[C@]4(C)[C@@]3(F)[C@@H](O)C[C@]2(C)[C@@]1(O)C(=O)CO` [HALOMETASONE] yielded an AC50 in test [1] of 13.1 µM. With `COc1ccc(CCC(C)NCC(O)c2ccc(O)c([S+](C)[O-])c2)cc1` (stereo unspecified) [SULFINALOL], the half-maximal activity concentration (AC50) in test [1] is greater than 30 µM.

In test [1], `O=C1CN=C(c2ccccc2)c2c(sc3c2CCCC3)N1` [BENTAZEPAM] displayed an AC50 greater than 30 µM. Compound `O=C(O)CCCN1CCC(O[C@@H](c2ccc(Cl)cc2)c2ccccn2)CC1` [BEPOTASTINE] showed an AC50 in test [1] greater than 30 µM. Take `O=C(O)c1cccc(-c2noc(-c3ccccc3F)n2)c1`: the concentration at half-maximal activity (AC50) in test [4] was greater than 10 µM; in test [1], greater than 30 µM; in test [3] it was greater than 10 µM; in test [5], greater than 10 µM; at Adenosine receptor A3 it was greater than 30 µM. In the case of `C[C@@H]1O[C@@H](OC[C@H]2O[C@@H](Oc3c(-c4ccc(OCCO)c(OCCO)c4)oc4cc(OCCO)cc(O)c4c3=O)[C@H](O)[C@@H](O)[C@@H]2O)[C@H](O)[C@H](O)[C@H]1O` [TROXERUTIN], the AC50 in test [1] is greater than 30 µM. `O=C(O)CCn1c2c(c3ccccc31)C[C@H](NS(=O)(=O)c1ccc(F)cc1)CC2` [RAMATROBAN]: the concentration at half-maximal activity (AC50) is greater than 10 µM in test [4]; greater than 30 µM in test [2]; greater than 30 µM in test [1]; greater than 10 µM in test [6]; greater than 10 µM in test [3]; greater than 10 µM in test [7]. The AC50 is greater than 10 µM in test [5] and greater than 30 µM at Adenosine receptor A3. For the compound `CCC(Cc1c(I)cc(I)c(N)c1I)C(=O)O` (stereo unspecified) [IOPANOIC ACID], the activity in test [1] was half-maximal at 14.5 µM (AC50). In test [1], `O=[N+]([O-])c1cncn1CCN1CCOCC1` [NIMORAZOLE] gave an AC50 greater than 30 µM. As for `NCc1ccccc1CC(=O)N[C@@H]1C(=O)N2C(C(=O)O)=C(CSc3nnnn3CC(=O)O)CS[C@H]12` [CEFORANIDE], the AC50 in test [1] is greater than 10 µM. `C[C@@H]1C[C@H]2[C@@H]3C[C@H](F)C4=CC(=O)C=C[C@]4(C)[C@@]3(F)[C@@H](O)C[C@]2(C)[C@@]1(O)C(=O)COC(=O)C(C)(C)C` [FLUMETHASONE PIVALATE] showed an AC50 in test [1] greater than 30 µM. On the same count and under the same terms, next, `CCCC1C(=O)N2C(N(C)C)=Nc3ccc(C)cc3N2C1=O` (stereo unspecified) [APAZONE]: greater than 30 µM; `CCC1(c2cccc(O)c2)CCCCN(C)C1` (stereo unspecified) [MEPTAZINOL]: greater than 30 µM; `CC[C@@H]1/C=C(\C)C[C@H](C)C[C@H](OC)[C@H]2O[C@@](O)(C(=O)C(=O)N3CCCC[C@H]3C(=O)O[C@H](/C(C)=C/[C@@H]3CC[C@H](Cl)[C@H](OC)C3)[C@H](C)[C@@H](O)CC1=O)[C@H](C)C[C@@H]2OC` [PIMECROLIMUS]: greater than 30 µM. As for `NS(=O)(=O)c1cc2c(cc1Cl)NC(C1CC3C=CC1C3)NS2(=O)=O` (stereo unspecified) [CYCLOTHIAZIDE], in test [1], the AC50 is 17.6 µM. For `CC(C(=O)O)c1ccc2c(c1)Cc1cccnc1O2` (stereo unspecified) [PRANOPROFEN], the AC50 in test [1] was greater than 30 µM.

For `Nc1ccc(C(=O)O)cc1` [AMINOBENZOIC ACID], the AC50 in test [1] is greater than 30 µM.

Turning to `COc1cc2c(cc1OC)[C@H]1C[C@@H](OC(=O)[C@@H](N)C(C)C)[C@H](CC(C)C)CN1CC2` [VALBENAZINE], the AC50 in test [1] was greater than 10 µM. Still for that read-out and setting: next, `NC(=O)c1cccc2cn(-c3ccc([C@@H]4CCCNC4)cc3)nc12` [NIRAPARIB]: greater than 30 µM; `COc1cc(NCc2ccc3nc(N)nc(N)c3c2C)cc(OC)c1OC` [TRIMETREXATE]: 12.3 µM. As for `CC/C=C\C/C=C\C/C=C\C/C=C\C/C=C\CCCC(=O)O` [ICOSAPENT], in test [1], the AC50 is greater than 30 µM. Consider `CC(C)Cc1ccc(C(C)C(=O)NO)cc1` (stereo unspecified) [IBUPROXAM], for which the activity in test [1] was half-maximal at 20.1 µM (AC50).
